{"source": "patent US20030170297A1", "about": "“Lipid-based drug delivery systems containing phospholipase a2 degradable lipid derivatives for topical application to the skin” (priority 2000, published 2003)", "key": {"[1]": {"biological_target": "T1, Snake venom PLA2 (Agkistrodon piscivorus piscivorus) (Agkistrodon piscivorus piscivorus, UniProt P51972)", "T1 construct": "This PLA2 enzyme belongs to the class of low-molecular weight 14 kD secretory enzymes; from tissue; host or cells: snake venom of Agkistrodon piscivorus piscivorus", "T1 sequence (P51972 1-123)": "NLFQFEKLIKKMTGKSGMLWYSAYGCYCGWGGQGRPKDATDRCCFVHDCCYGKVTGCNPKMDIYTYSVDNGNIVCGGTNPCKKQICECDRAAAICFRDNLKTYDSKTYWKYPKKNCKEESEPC", "test": "PLA2-controlled calcein release across non-hydrolysable D-O-SPC target membrane (micelle or liposome carriers)", "assay_type": "biochemical", "description": "Multilamellar model membrane target liposomes were made in the presence of fluorescent calcein in a self-quenching concentration of 20 mM by hydrating a film of 1,2-O-dioctadecyl-sn-glycero-3-phosphatidylcholines (D-O-SPC) in a HEPES buffer solution at pH=7.5 for one hour at 10° C. above the phase transition temperature (Tm=55° C.). Unilamellar liposomes were made by extruding the multilamellar liposomes ten times through two stacked 100 nm polycarbonate filters. The unilamellar liposomes were rapidly cooled to a temperature below the transition temperature, and the calcein-containing liposomes were separated from free calcein using a chromatographic column packed with Sephadex G-50. […] (1-O-DPPE-PEG350), di-octadecanoyl-sn-glycero-3-phosphoethanolamine-N-[methoxy(polyethylene glycol)-750 (DSPE-PEG750). were prepared as described in example 6. Calcein release from the target liposomes is determined by measuring the fluorescent intensity at 520 nm after excitation at 492 nm.\nThe concentrations of D-O-SPC and polymer-lipid micelles were 25 μM. Snake venom PLA2 (Agkistrodon piscivorus piscivorus) was added (25 nM) to initiate the hydrolytic reaction leading to instant formation of the polymer-lyso-1-O-DPPE and the free fatty acid hydrolysis products. […] The percentage of calcein released is determined as described in example 3.\nThe experimental model system consists of a negatively charged liposome carrier and a model target membrane. The carrier is a 100 nm unilamellar liposome made of dipalmitoyl phosphatidylcholine lipids (DPPC) with small amounts (2.5 mol %) of negatively charged lipid of the type dipalmitoyl phosphatidylethanolamine (DPPE)—PEG2000. The target membrane is another liposome made of 1,2-O-dioctadecyl-sn-glycero-phosphatidylcholine (D-O-SPC) which is a phospholipid where the acyl linkages of the stearoyl chains are ether bonds. In contrast to DPPC, D-O-SPC is inert towards PLA2-catalysed hydrolysis thereby mimicking the stability of an intact target cell membrane toward degradation by its own enzymes. This experimental assay, which permits simultaneous as well as separate investigation of the effect of destabilisers at the carrier liposomes and the effect of enhancers at the target membrane, involves entrapment of a water-soluble fluorescent calcein model drug in a self-quenching concentration, in the interior of the non-hydrolysable target liposome, rather than in the carrier liposome. The enhanced level of extracellular PLA2 at the target membrane can then be simulated by adding extracellular PLA2 to initiate the hydrolytic reaction in a suspension of the carrier and target liposomes. The permeation of calcein across the D-O-SPC target membrane is subsequently monitored by the increase in fluorescence. In order to investigate the effect of the presence of small amounts of negatively charged lipids in the carrier liposome, a similar experiment was performed with conventional bare DPPC liposomes. Furthermore, in order to compare and discriminate the permeability enhancing effect of lyso-phospholipids from that of free fatty acids, experiments without enzymes were carried out where lyso-phospholipids and free fatty acids were added simultaneously or separately to the target liposomes.\nDPPC, DCPC, D-O-SPC, and DPPE-PEG2000 were obtained from Avanti Polar Lipids. Purified snake venom PLA2 (Agkistrodon piscivorus piscivorus) was a generous gift from dr. R. L. Biltonen. This PLA2 enzyme belongs to the class of low-molecular weight, 14 kD secretory enzymes which display structural similarity to human extracellular phospholipase A2."}, "[2]": {"biological_target": "T2, phospholipase A2 (PLA2 from Agikistrodon piscivorus piscivorus) (Agkistrodon piscivorus piscivorus, UniProt P51972)", "T2 construct": "This PLA2 enzyme belongs to the class of low-molecular weight 14 kD secretory enzymes; from tissue; host or cells: snake venom of Agkistrodon piscivorus piscivorus", "T2 sequence (P51972 1-123)": "T1 sequence (P51972 1-123)", "test": "PLA2 reaction time profile, lag-time and HPLC percent hydrolysis of unilamellar liposomes", "assay_type": "biochemical", "details": "FIG. 3, liposomes composed of 1-O-DPPC, after PLA2 addition", "protocol": "Phospholipase A2 reaction profile and lag time measurements Purified snake-venom phospholipase A2 (PLA2 from Agikistrodon piscivorus piscivorus) has been isolated according to the procedure of Maraganore et al., J. Biol. Chem. 259, 13839-13843. […] Assay conditions for the PLA2 reaction time profile shown in FIG. 2 and the lag-time and percent hydrolysis reported in Table 1 were: 0.15 mM unilamellar liposomes, 150 nM PLA2, 150 mM KCL, 10 mM HEPES (pH 7.5), 1 mM NaN3, 30 μM CaCl2, and 10 μM EDTA.\nLag-time and percent hydrolysed 1-O-DPPC at 41° C. as determined by HPLC. The lipid concentration was 0.150 mM in a 10 mM HEPES-buffer (pH=7.5).\nThe catalytic reaction was initiated by adding 8.9 μL of a 42 μM PLA2 (150 nM) stock solution to 2.5 ml of the thermostated liposome suspension (0.150 mM) equilibrated for 800 sec prior to addition of PLA2. The characteristic lag-burst behaviour of PLA2 towards the liposomes is signalled by a sudden increase in the intrinsic fluorescence from PLA2 at 340 nm after excitation at 285 nm followed by a concomitant decrease in the 90° light scattering from the lipid suspension (Hønger et al., Biochemistry 35, 9003-9006). […] The turnover of the PLA2 catalysed lipid hydrolysis of 1-O-DPPC to lyso-1-O-PPC was measured by HPLC (see Table 1). […]"}, "[3]": {"test": "Calcein release across target membrane on adding lyso-phospholipid and fatty acid in the absence of PLA2", "details": "absence of PLA2, 25 μM target membranes, 39° C., FIG. 12", "quoted_text": "The experimental model system consists of a negatively charged liposome carrier and a model target membrane. The carrier is a 100 nm unilamellar liposome made of dipalmitoyl phosphatidylcholine lipids (DPPC) with small amounts (2.5 mol %) of negatively charged lipid of the type dipalmitoyl phosphatidylethanolamine (DPPE)—PEG2000. The target membrane is another liposome made of 1,2-O-dioctadecyl-sn-glycero-phosphatidylcholine (D-O-SPC) which is a phospholipid where the acyl linkages of the stearoyl chains are ether bonds. In contrast to DPPC, D-O-SPC is inert towards PLA2-catalysed hydrolysis thereby mimicking the stability of an intact target cell membrane toward degradation by its own enzymes. […] The permeation of calcein across the D-O-SPC target membrane is subsequently monitored by the increase in fluorescence. […]\nMultilamellar target liposomes in the presence of fluorescent calcein in a self-quenching concentration of 20 mM were made by hydrating a film of D-O-SPC in a HEPES buffer solution at pH=7.5 for one hour at 10° C. above the phase transition temperature Tm=55° C. […] Calcein release from the target liposomes is determined by measuring the fluorescent intensity at 520 nm after excitation at 492 nm. […]"}, "[4]": {"biological_target": "T3, phospholipase A2 (A. piscivorus piscivorus) (Agkistrodon piscivorus piscivorus, UniProt P51972)", "T3 sequence (P51972 1-123)": "T1 sequence (P51972 1-123)", "description": "The hydrolysis of micelles composed DSPE-PEG750 was followed by analysis of the amount of stearic acid generated. The catalytic reaction was initiated by adding 8.9 μL of a 42 μM PLA2 (150 nM) stock solution to 2.5 ml a thermostated micelle suspension of DSPE-PEG750 (0.150 mM) equilibrated at 45° C. for 600 seconds prior to addition of PLA2. The characteristic burst behaviour of PLA2 towards the micelles is signalled by a sudden increase in the intrinsic fluorescence from PLA2 at 340 nm after excitation at 285 nm followed by a concomitant decrease in the 90° light scattering from the lipid suspension (Hønger et al., Biochemistry 35, 9003-9006). Samples for HPLC analysis of the amount of stearic acid generated were taken before adding PLA2 and 100 sec after the observed lag-time. […] HPLC analysis was made using a 5 μm diol column, a mobile phase composed of chloroform/methanol/water (730:230:30, v/v) and an evaporative light scattering detector (see example 2)."}}, "note": "Where “and” joins values, the source holds several entries; their conditions need not be identical. Identical values can stand only once.", "data": [{"compound": "1—hexadecyl-2-hexadecanoyl-sn-glycero-3-phosphoethanolamine-N-[methoxy(poly-ethylene glycol)-2000] [DPPE-PEG2000]", "values": [{"measurement": "rate of release of calcein across target membrane versus bare DPPC carriers", "setting": "[1]; DPPC + 2.5 mol % DPPE-PEG2000 carriers, 37° C.", "value": "dramatically enhanced"}, {"measurement": "change of lag time versus bare DPPC carriers", "setting": "[1]; DPPC carrier liposomes with 2.5 mol % DPPE-PEG2000, 37° C.", "value": "dramatic decrease in the lag time"}]}, {"compound": "CCCCCCCCCCCCCCCCOC[C@H](COP(=O)([O-])OCC[N+](C)(C)C)OC(=O)CCCCCCCCCCCCCCC", "note": "[1-O-DPPC]", "values": [{"measurement": "amount of 1-O-DPPC after the lag-burst (HPLC; 100% before PLA2)", "setting": "[2]", "value": 21, "unit": "%"}]}, {"compound": "CCCCCCCCCCCCCCCCCCOC[C@H](COP(=O)([O-])OCC[N+](C)(C)C)OCCCCCCCCCCCCCCCCCC", "note": "[D-O-SPC, 1,2-O-dioctadecyl-sn-glycero-3-phosphatidylcholines]", "values": [{"measurement": "behaviour towards PLA2-catalysed hydrolysis", "setting": "[1]; target membrane lipid", "value": "inert"}]}, {"compound": "CCCCCCCCCC(=O)OC[C@H](COP(=O)([O-])OCC[N+](C)(C)C)OC(=O)CCCCCCCCC", "note": "[DCPC, didecanoyl phosphatidylcholine]", "values": [{"measurement": "calcein release across target membrane with short-chain phospholipid in carrier PEG-liposomes", "setting": "[1]; small amount of DCPC in carrier PEG-liposomes, FIG. 11a", "value": "very fast"}]}, {"compound": "CC(C)CCC[C@@H](C)[C@H]1CC[C@H]2[C@@H]3CC=C4C[C@@H](O)CC[C@]4(C)[C@H]3CC[C@]12C", "note": "[cholesterol]", "values": [{"measurement": "effect on extracellular PLA2 activity", "setting": "[1]; large amount (≈20 mol %) incorporated into liposomes, data not shown", "value": "deactivated"}, {"measurement": "effect on extracellular PLA2 activity", "setting": "[1]; small amount (≈3 mol %) in liposomes", "value": "activates"}]}, {"compound": "CCCCCCCCCCCCCCCC(=O)O", "note": "[fatty acid, palmitic acid]", "values": [{"measurement": "rate of calcein release across the target membrane, added separately", "setting": "[3]", "value": "increased rate of calcein release"}]}, {"compound": "di-octadecanoyl-sn-glycero-3-phosphoethanolamine-N-[methoxy(polyethylene glycol)-750 [DSPE-PEG750]", "values": [{"measurement": "amount of stearic acid generated by hydrolysis", "setting": "[4]; 0.150 mM DSPE-PEG750 micelles, 150 nM PLA2, 45° C.", "value": "0.156 mM and 0.157 mM"}, {"measurement": "hydrolysis of DSPE-PEG750 to lyso-DSPE-PEG750 and stearic acid", "setting": "[4]; 0.150 mM micelles, 150 nM PLA2, 45° C., 100 sec after lag time", "value": 100, "unit": "%"}, {"measurement": "observed lag time", "setting": "[4]; DSPE-PEG750 micelles 0.150 mM, 45° C.", "value": 10, "unit": "s"}]}]}
